pIC50: −log10 of the molar value. ≈ marks a conversion by molar mass, not a printed value. Blank lines part the entries; values can stand above or below the molecule they belong to.
Tests used:
Ketohexokinase [1] = target: T1, Ketohexokinase (Homo sapiens, UniProt P50053); assay: Inhibition of human ketohexokinase isoform C expressed in Escherichia coli BL21 (DE3) cells using D-fructose as substrate after 12 to 15 mins by fluorescence polarization assay
T1 sequence (P50053 whole entry): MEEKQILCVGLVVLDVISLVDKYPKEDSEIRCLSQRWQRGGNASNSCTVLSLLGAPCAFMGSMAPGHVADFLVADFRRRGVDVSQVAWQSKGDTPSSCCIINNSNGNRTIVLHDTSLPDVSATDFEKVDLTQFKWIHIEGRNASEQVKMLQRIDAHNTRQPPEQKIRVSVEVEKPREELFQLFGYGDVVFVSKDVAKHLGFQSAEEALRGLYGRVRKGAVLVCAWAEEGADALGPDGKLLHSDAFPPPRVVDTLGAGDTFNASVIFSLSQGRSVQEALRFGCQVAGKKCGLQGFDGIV

Ketohexokinase [2] = target: T1, Ketohexokinase; assay: Inhibition of ketokinase isoform C in human HepG2 cells assessed as levels of fructose-1-phosphate preincubated for 30 mins followed by substrate addition measured after 3 hrs by LC-MS analysis; type: cell-based
[3] = target: Tyrosine-protein kinase ABL1 (Homo sapiens, UniProt P00519); assay: Inhibition of ABL1
Activin receptor type-1B = Activin receptor type-1B (Homo sapiens, UniProt P36896); assay: Inhibition of ALK4
[4] = target: RAC-alpha serine/threonine-protein kinase (Homo sapiens, UniProt P31749); assay: Inhibition of AKT1
[5] = target: 5'-AMP-activated protein kinase catalytic subunit alpha-1 (Homo sapiens, UniProt Q13131); assay: Inhibition of AMPKA1
[6] = target: 5'-AMP-activated protein kinase subunit beta-1 (Homo sapiens, UniProt Q9Y478); assay: Inhibition of AMPKB1
[7] = target: 5'-AMP-activated protein kinase subunit gamma-1 (Homo sapiens, UniProt P54619); assay: Inhibition of AMPKG1
Aurora kinase A = Aurora kinase A (Homo sapiens, UniProt O14965); assay: Inhibition of Aurora A
[8] = target: Calcium/calmodulin-dependent protein kinase type 1D (Homo sapiens, UniProt Q8IU85); assay: Inhibition of CAMK1D
[9] = target: Calcium/calmodulin-dependent protein kinase type II subunit alpha (Homo sapiens, UniProt Q9UQM7); assay: Inhibition of CAMK2A
[10] = target: Cyclin-dependent kinase 1/cyclin B1 (Homo sapiens, UniProt P06493); assay: Inhibition of CDK1/cyclin B; type: protein-complex assay
[11] = target: Serine/threonine-protein kinase Chk1 (Homo sapiens, UniProt O14757); assay: Inhibition of CHK1
[12] = target: Serine/threonine-protein kinase Chk2 (Homo sapiens, UniProt O96017); assay: Inhibition of CHK2
[13] = target: Death-associated protein kinase 3 (Homo sapiens, UniProt O43293); assay: Inhibition of DAPK3
Ephrin type-B receptor 1 = Ephrin type-B receptor 1 (Homo sapiens, UniProt P54762); assay: Inhibition of EPHB1
[14] = target: Glycogen synthase kinase-3 beta (Homo sapiens, UniProt P49841); assay: Inhibition of GSK3beta
[15] = target: Interleukin-1 receptor-associated kinase 4 (Homo sapiens, UniProt Q9NWZ3); assay: Inhibition of IRAK4
[16] = target: Tyrosine-protein kinase JAK2 (Homo sapiens, UniProt O60674); assay: Inhibition of JAK2
[17] = target: Mitogen-activated protein kinase 13 (Homo sapiens, UniProt O15264); assay: Inhibition of p38delta
[18] = target: Serine/threonine-protein kinase 26 (Homo sapiens, UniProt Q9P289); assay: Inhibition of MST4
[19] = target: Serine/threonine-protein kinase Nek2 (Homo sapiens, UniProt P51955); assay: Inhibition of NEK2
[20] = target: High affinity nerve growth factor receptor (Homo sapiens, UniProt P04629); assay: Inhibition of NTRK1
[21] = target: Serine/threonine-protein kinase PAK 3 (Homo sapiens, UniProt O75914); assay: Inhibition of PAK3
[22] = target: Serine/threonine-protein kinase pim-2 (Homo sapiens, UniProt Q9P1W9); assay: Inhibition of PIM2
[23] = target: Serine/threonine-protein kinase PLK3 (Homo sapiens, UniProt Q9H4B4); assay: Inhibition of PLK3
[24] = target: cAMP-dependent protein kinase catalytic subunit alpha (Homo sapiens, UniProt P17612); assay: Inhibition of PRKACA
[25] = target: Protein kinase C theta type (Homo sapiens, UniProt Q04759); assay: Inhibition of PKCtheta
[26] = target: Rho-associated protein kinase 1 (Homo sapiens, UniProt Q13464); assay: Inhibition of ROCK1
[27] = target: Ribosomal protein S6 kinase alpha-3 (Homo sapiens, UniProt P51812); assay: Inhibition of RPS6KA3
[28] = target: Proto-oncogene tyrosine-protein kinase Src (Homo sapiens, UniProt P12931); assay: Inhibition of SRC
[29] = Solubility of the compound in 10% aqueous Solutol; type: physicochemical
[30] = Metabolic stability of the compound in human liver microsomes assessed as compound remaining after 10 mins; type: ADME, Microsome; conditions: read-out: Stability
[31] = Metabolic stability of the compound in rat liver microsomes assessed as compound remaining after 10 mins; type: ADME, Microsome; conditions: read-out: Stability
[32] = Permeability from apical to basolateral side in human Caco2 cells; type: ADME, cell-based; conditions: Caco-2, read-out: permeability
[33] = Permeability from basolateral to apical side in human Caco2 cells; type: ADME, cell-based; conditions: Caco-2, read-out: permeability
Cytochrome P450 1A2 = Cytochrome P450 1A2 (Homo sapiens, UniProt P05177); assay: Inhibition of CYP1A2 in human liver microsomes; type: ADME, Microsome
Cytochrome P450 2C19 = Cytochrome P450 2C19 (Homo sapiens, UniProt P33261); assay: Inhibition of CYP2C19 in human liver microsomes; type: ADME, Microsome
Cytochrome P450 2D6 = Cytochrome P450 2D6 (Homo sapiens, UniProt P10635); assay: Inhibition of CYP2D6 in human liver microsomes; type: ADME, Microsome
Cytochrome P450 2C9 = Cytochrome P450 2C9 (Homo sapiens, UniProt P11712); assay: Inhibition of CYP2C9 in human liver microsomes; type: ADME, Microsome
Cytochrome P450 3A4 = Cytochrome P450 3A4 (Homo sapiens, UniProt P08684); assay: Inhibition of CYP3A4 in human liver microsomes; type: ADME, Microsome
[34] = Oral bioavailability in Sprague-Dawley rat at 10 mg/kg; type: ADME, organism-based; conditions: in vivo
[35] = Half life in Sprague-Dawley rat at 10 mg/kg, po; type: ADME, organism-based; parameters: dose 10 mg/kg, route oral; conditions: in vivo
[36] = Volume of distribution at steady state in Sprague-Dawley rat at 2 mg/kg, iv; type: ADME, organism-based; parameters: dose 2 mg/kg, route intravenous; conditions: in vivo, read-out: Vdss
[37] = Clearance in Sprague-Dawley rat at 2 mg/kg, iv; type: ADME, organism-based; parameters: dose 2 mg/kg, route intravenous; conditions: in vivo
[38] = Cmax in Sprague-Dawley rat at 10 mg/kg, po; type: ADME, organism-based; parameters: dose 10 mg/kg, route oral; conditions: in vivo
[39] = Initial plasma concentration in Sprague-Dawley rat at 2 mg/kg, iv; type: ADME, organism-based; parameters: dose 2 mg/kg, route intravenous
[40] = Half life in Sprague-Dawley rat at 2 mg/kg, iv; type: ADME, organism-based; parameters: dose 2 mg/kg, route intravenous; conditions: in vivo

Calcium/calmodulin-dependent protein kinase type II subunit alpha, sequence (Q9UQM7 whole entry): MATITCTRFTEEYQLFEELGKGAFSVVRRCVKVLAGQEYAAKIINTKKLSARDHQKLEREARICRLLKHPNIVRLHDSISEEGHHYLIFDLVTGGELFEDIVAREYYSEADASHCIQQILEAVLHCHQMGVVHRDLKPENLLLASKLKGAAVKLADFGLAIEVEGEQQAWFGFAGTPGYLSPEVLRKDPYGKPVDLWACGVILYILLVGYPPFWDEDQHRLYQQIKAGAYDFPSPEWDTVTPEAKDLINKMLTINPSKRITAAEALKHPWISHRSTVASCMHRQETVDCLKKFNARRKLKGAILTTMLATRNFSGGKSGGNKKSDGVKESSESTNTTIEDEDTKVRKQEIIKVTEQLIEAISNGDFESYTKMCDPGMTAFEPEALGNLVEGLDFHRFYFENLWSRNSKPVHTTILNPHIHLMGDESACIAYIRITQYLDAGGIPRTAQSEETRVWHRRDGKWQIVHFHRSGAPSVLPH
Tyrosine-protein kinase JAK2, sequence (O60674 whole entry): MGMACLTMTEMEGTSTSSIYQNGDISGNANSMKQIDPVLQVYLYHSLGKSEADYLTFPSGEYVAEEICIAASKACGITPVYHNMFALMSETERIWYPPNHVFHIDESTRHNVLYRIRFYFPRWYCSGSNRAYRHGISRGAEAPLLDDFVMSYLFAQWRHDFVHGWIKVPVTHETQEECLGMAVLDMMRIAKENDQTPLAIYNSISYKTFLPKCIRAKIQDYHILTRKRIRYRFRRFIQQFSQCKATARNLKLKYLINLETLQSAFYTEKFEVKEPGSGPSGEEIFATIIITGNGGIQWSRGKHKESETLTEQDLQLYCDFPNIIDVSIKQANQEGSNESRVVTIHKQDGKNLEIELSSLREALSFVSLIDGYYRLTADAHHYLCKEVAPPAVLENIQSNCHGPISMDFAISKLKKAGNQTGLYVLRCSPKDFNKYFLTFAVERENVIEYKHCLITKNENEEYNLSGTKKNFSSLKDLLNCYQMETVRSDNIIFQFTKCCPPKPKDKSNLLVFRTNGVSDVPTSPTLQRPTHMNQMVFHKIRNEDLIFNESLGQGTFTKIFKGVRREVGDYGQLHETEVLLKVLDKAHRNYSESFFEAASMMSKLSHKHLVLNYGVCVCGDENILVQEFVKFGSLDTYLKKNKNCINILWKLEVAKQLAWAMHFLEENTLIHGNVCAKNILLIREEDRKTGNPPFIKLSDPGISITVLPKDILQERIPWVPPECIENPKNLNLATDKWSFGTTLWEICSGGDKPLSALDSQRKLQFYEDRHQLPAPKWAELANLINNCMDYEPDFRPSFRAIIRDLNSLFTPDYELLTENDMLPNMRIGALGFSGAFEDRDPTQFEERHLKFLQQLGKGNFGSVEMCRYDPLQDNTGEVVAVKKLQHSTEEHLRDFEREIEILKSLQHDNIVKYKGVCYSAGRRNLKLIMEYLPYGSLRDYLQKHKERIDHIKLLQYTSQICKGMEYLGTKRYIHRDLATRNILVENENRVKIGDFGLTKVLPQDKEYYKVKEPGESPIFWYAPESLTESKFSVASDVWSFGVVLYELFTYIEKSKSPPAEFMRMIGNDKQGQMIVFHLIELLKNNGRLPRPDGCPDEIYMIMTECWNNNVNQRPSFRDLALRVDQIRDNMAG
Ephrin type-B receptor 1, sequence (P54762 whole entry): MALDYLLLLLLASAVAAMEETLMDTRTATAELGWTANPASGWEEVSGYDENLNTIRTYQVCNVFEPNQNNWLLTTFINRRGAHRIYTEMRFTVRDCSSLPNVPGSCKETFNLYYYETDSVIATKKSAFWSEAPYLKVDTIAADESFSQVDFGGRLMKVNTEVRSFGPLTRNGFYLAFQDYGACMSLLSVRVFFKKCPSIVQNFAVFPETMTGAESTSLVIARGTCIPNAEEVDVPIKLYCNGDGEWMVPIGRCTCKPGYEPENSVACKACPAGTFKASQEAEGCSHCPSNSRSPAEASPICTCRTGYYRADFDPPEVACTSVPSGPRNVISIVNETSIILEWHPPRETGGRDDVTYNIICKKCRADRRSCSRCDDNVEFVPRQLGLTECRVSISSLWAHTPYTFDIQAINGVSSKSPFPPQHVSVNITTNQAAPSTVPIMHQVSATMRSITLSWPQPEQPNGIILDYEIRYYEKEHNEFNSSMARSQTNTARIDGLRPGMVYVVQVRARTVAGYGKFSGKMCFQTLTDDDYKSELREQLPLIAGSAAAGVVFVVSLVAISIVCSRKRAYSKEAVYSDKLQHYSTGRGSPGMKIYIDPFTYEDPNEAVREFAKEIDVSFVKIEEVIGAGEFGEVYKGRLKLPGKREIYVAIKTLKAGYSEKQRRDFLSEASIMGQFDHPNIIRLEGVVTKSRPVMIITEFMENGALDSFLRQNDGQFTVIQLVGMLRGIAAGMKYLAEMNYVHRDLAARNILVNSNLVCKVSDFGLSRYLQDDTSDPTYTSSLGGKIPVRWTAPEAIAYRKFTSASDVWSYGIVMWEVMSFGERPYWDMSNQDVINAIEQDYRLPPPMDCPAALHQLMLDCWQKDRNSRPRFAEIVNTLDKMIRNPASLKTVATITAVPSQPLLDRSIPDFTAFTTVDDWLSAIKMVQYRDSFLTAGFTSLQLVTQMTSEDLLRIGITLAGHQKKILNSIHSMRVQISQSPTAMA
Cytochrome P450 2C9, sequence (P11712 whole entry): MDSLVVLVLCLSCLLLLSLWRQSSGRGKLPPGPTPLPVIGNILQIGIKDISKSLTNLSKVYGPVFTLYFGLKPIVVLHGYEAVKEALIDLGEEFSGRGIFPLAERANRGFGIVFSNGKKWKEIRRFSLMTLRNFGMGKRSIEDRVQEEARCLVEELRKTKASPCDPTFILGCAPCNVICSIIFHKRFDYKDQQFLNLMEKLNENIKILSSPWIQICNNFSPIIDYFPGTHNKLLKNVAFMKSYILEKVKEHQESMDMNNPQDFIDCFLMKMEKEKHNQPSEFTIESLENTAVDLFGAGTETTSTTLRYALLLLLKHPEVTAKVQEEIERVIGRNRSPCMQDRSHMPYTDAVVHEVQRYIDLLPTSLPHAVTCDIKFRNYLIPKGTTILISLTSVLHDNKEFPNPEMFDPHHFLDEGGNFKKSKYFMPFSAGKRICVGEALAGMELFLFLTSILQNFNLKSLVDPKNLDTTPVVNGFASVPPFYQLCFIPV
Glycogen synthase kinase-3 beta, sequence (P49841 whole entry): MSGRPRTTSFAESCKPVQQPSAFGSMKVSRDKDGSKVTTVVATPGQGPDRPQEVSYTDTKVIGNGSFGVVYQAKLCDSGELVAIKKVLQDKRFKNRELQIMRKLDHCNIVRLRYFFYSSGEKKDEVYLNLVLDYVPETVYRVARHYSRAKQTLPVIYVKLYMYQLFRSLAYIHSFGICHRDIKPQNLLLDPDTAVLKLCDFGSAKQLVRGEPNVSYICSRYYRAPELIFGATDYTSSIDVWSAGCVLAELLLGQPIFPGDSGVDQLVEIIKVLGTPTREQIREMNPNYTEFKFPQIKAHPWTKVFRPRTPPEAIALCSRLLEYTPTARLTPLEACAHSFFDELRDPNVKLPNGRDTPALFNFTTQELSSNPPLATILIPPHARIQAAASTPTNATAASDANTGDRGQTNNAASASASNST
Proto-oncogene tyrosine-protein kinase Src, sequence (P12931 2-536 limits assumed): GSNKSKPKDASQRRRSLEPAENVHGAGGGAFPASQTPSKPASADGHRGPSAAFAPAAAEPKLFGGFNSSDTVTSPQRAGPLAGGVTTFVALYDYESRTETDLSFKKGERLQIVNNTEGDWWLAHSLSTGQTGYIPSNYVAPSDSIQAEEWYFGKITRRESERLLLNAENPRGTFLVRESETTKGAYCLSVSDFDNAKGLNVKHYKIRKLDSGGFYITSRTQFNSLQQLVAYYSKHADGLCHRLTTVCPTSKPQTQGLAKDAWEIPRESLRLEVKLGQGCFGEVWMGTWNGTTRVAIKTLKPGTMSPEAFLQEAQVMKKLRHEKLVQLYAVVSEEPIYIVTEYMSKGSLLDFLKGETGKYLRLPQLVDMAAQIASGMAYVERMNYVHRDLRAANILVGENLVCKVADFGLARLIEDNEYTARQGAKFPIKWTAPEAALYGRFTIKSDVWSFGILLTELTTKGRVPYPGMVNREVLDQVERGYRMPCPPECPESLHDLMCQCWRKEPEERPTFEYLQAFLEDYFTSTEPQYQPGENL
Serine/threonine-protein kinase Nek2, sequence (P51955 whole entry): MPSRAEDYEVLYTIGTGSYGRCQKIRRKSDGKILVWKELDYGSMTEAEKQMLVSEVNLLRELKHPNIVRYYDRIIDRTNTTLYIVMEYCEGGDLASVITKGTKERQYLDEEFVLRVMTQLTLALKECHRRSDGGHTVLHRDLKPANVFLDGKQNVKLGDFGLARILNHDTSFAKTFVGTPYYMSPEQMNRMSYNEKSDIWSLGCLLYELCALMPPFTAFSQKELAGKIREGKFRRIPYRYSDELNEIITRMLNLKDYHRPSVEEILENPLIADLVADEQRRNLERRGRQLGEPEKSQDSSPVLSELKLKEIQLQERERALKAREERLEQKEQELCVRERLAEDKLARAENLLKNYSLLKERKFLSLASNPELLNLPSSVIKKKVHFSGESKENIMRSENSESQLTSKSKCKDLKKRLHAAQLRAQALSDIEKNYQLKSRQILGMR
Serine/threonine-protein kinase Chk1, sequence (O14757 whole entry): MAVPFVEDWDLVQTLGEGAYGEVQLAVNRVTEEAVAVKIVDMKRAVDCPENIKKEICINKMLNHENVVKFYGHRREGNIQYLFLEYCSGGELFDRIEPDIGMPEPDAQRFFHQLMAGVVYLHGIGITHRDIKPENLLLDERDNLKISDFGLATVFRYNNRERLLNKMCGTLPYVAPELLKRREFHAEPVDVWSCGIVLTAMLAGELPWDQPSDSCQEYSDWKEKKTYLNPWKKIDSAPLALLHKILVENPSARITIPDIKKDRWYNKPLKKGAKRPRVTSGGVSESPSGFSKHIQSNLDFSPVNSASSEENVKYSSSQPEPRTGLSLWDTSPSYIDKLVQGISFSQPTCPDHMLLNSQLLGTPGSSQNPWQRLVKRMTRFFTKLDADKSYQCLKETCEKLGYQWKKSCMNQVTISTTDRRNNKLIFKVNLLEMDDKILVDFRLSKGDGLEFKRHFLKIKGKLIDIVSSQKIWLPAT

SMILES: Cc1cccc(Nc2nc(N3CCNCC3)nc3c(NCC4CC4)ncnc23)c1
pIC50 (Ketohexokinase [1]): 5.55

SMILES: COc1ccccc1Nc1nc(N2CCNCC2)nc2c(NCC3CC3)ncnc12
pIC50 (Ketohexokinase [1]): 7.00

SMILES: CSc1ccccc1Nc1nc(N2CCNCC2)nc2c(NCC3CC3)ncnc12
pIC50 (Ketohexokinase [2]): 6.40 | pIC50 [3]: < 4.40 | pIC50 (Activin receptor type-1B): < 4.40 | pIC50 [4]: < 4.40 | pIC50 [5]: < 4.40 | pIC50 [6]: < 4.40 | pIC50 [7]: < 4.40 | pIC50 (Aurora kinase A): < 4.40 | pIC50 [8]: < 4.40 | pIC50 [9]: < 4.40 | pIC50 [10]: < 4.40 | pIC50 [11]: < 4.40 | pIC50 [12]: < 4.40 | pIC50 [13]: < 4.40 | pIC50 (Ephrin type-B receptor 1): < 4.40 | pIC50 [14]: < 4.40 | pIC50 [15]: < 4.40 | pIC50 [16]: < 4.40 | pIC50 [17]: < 4.40 | pIC50 [18]: < 4.40 | pIC50 [19]: < 4.40 | pIC50 [20]: < 4.40 | pIC50 [21]: < 4.40 | pIC50 [22]: < 4.40 | pIC50 [23]: < 4.40 | pIC50 [24]: < 4.40 | pIC50 [25]: < 4.40 | pIC50 [26]: < 4.40 | pIC50 [27]: < 4.40 | pIC50 [28]: < 4.40 | solubility [29]: 1500 µg/mL (≈ 3.55 mM) | remaining at 10 min [30]: 88% | remaining at 10 min [31]: 72% | Papp A→B [32]: 0.3 ×10⁻⁶ cm/s | Papp B→A [33]: 1 ×10⁻⁶ cm/s | inhibition (INH) (Cytochrome P450 1A2): Not Active | inhibition (INH) (Cytochrome P450 2C19): Not Active | inhibition (INH) (Cytochrome P450 2D6): Not Active | inhibition (INH) (Cytochrome P450 2C9): Not Active | inhibition (INH) (Cytochrome P450 3A4): Not Active | bioavailability [34]: 34% | half-life [35]: 4 h | Vd [36]: 32 L/kg | clearance [37]: 160 mL/min/kg | Cmax [38]: 160 nM | C0 [39]: 600 nM | half-life [40]: 2 h

SMILES: CSc1ccc(Nc2nc(N3CCNCC3)nc3c(NCC4CC4)ncnc23)cc1
pIC50 (Ketohexokinase [1]): < 5.05

SMILES: CCSc1ccccc1Nc1nc(N2CCNCC2)nc2c(NCC3CC3)ncnc12
pIC50 (Ketohexokinase [1]): < 5.05

SMILES: FC(F)(F)Sc1ccccc1Nc1nc(N2CCNCC2)nc2c(NCC3CC3)ncnc12
pIC50 (Ketohexokinase [1]): 5.52

SMILES: CC(C)c1ccccc1Nc1nc(N2CCNCC2)nc2c(NCC3CC3)ncnc12
pIC50 (Ketohexokinase [1]): 5.30

SMILES: c1ccc(C2CC2)c(Nc2nc(N3CCNCC3)nc3c(NCC4CC4)ncnc23)c1
pIC50 (Ketohexokinase [1]): 6.42

SMILES: Fc1ccccc1Nc1nc(N2CCNCC2)nc2c(NCC3CC3)ncnc12
pIC50 (Ketohexokinase [1]): 5.82

SMILES: Clc1ccccc1Nc1nc(N2CCNCC2)nc2c(NCC3CC3)ncnc12
pIC50 (Ketohexokinase [1]): 6.27

SMILES: c1nc(NCC2CC2)c2nc(N3CCNCC3)nc(NC3CCCCC3)c2n1
pIC50 (Ketohexokinase [1]): < 5.05

SMILES: CCCNc1ncnc2c(Nc3ccccc3C)nc(N3CCNCC3)nc12
pIC50 (Ketohexokinase [1]): 6.40

SMILES: CCCCCCNc1ncnc2c(Nc3ccccc3C)nc(N3CCNCC3)nc12
pIC50 (Ketohexokinase [1]): 5.80

SMILES: Cc1ccccc1Nc1nc(N2CCNCC2)nc2c(NC3CCCCC3)ncnc12
pIC50 (Ketohexokinase [1]): 5.64

SMILES: CCN(CC)c1ncnc2c(Nc3ccccc3C)nc(N3CCNCC3)nc12
pIC50 (Ketohexokinase [1]): 5.77

Continued, values first:

pIC50 (Ketohexokinase [1]): 6.40
SMILES: CNc1ncnc2c(Nc3ccccc3C)nc(N3CCNCC3)nc12

pIC50 (Ketohexokinase [2]): 5.62
SMILES: Cc1ccccc1Nc1nc(N2CCNCC2)nc2c(NCC3CC3)ncnc12

pIC50 (Ketohexokinase [1]): 5.49
SMILES: c1ccc(Nc2nc(N3CCNCC3)nc3c(NCC4CC4)ncnc23)cc1

pIC50 (Ketohexokinase [1]): 6.70
SMILES: CCOc1ccccc1Nc1nc(N2CCNCC2)nc2c(NCC3CC3)ncnc12

pIC50 (Ketohexokinase [1]): 5.70
SMILES: CSc1cccc(Nc2nc(N3CCNCC3)nc3c(NCC4CC4)ncnc23)c1

pIC50 (Ketohexokinase [1]): < 5.05
SMILES: CS(=O)(=O)c1ccccc1Nc1nc(N2CCNCC2)nc2c(NCC3CC3)ncnc12

pIC50 (Ketohexokinase [1]): 6.89
SMILES: CCc1ccccc1Nc1nc(N2CCNCC2)nc2c(NCC3CC3)ncnc12

pIC50 (Ketohexokinase [1]): 6.77
SMILES: Brc1ccccc1Nc1nc(N2CCNCC2)nc2c(NCC3CC3)ncnc12

pIC50 (Ketohexokinase [1]): < 5.05
SMILES: c1nc(NCC2CC2)c2nc(N3CCNCC3)nc(NC3CC3)c2n1
